Source: US10435361B2, “Kinase inhibitors” (Topivert Pharma Limited, priority 2013, dated 2019)

What follows are compounds tested on PBMCs (assay: LPS-induced TNFα/IL-8 release in PBMC cells). Conditions: Homo sapiens, assay (b), read-out: IC50 Values for Inhibition of Cytokine Release PBMCs IL-8.
Type: cell-based
Procedure: Peripheral blood mononuclear cells (PBMCs) from healthy subjects are separated from whole blood using a density gradient (Lymphoprep, Axis-Shield Healthcare). The PBMCs are seeded in 96 well plates and treated with compounds at the desired concentration for 2 hours before addition of 1 ng/mL LPS (Escherichia Coli 0111:B4 from Sigma Aldrich) for 24 hours under normal tissue culture conditions (37° C., 5% CO2). The supernatant is harvested for determination of IL-8 and TNFα concentrations by sandwich ELISA (Duo-set, R&D systems) and read on the fluorescence microplate reader (Varioskan® Flash, ThermoFisher Scientific).
`C#Cc1cc(Nc2nccc(Oc3ccc(NC(=O)Nc4cc(C(C)(C)C)cc(C(N)=O)c4OC)c4ccccc34)n2)cc(C(=O)NCCN2CCOCC2)c1` [85(g), 5-tert-Butyl-3-[[4-[2-[3-ethynyl-5-(2-morpholinoethylcarbamoyl)anilino]-pyrimidin-4-yl]oxy-1-naphthyl]carbamoylamino]-2-methoxy-benzamide] showed an IC50 of 1 nM.
`COc1cc(Nc2cc(Oc3ccc(NC(=O)Nc4cc(C(C)(C)C)cc(NS(C)(=O)=O)c4OC)c4ccccc34)ccn2)cc(C(=O)NCCN2CCC(O)CC2)c1` [85(w), 3-[[4-[[4-[[5-tert-Butyl-3-(methanesulfonamido)-2-methoxyphenyl]-carbamoylamino]-1-naphthyl]oxy]-2-pyridyl]amino]-N-[2-(4-hydroxy-1-piperidyl)ethyl]-5-methoxybenzamide] showed an IC50 of 2.9 nM.
Compound `COCCOCCOCCNC(=O)c1cc(Nc2nccc(Oc3ccc(NC(=O)Nc4cc(C(C)(C)C)cc(NS(C)(=O)=O)c4OC)c4ccccc34)n2)cc(OC)c1` [Example 7, 3-((4-((4-(3-(5-(tert-Butyl)-2-methoxy-3-(methylsulfonamido)phenyl)ureido)naphthalen-1-yl)oxy)pyrimidin-2-yl)amino)-5-methoxy-N-(2-(2-(2-methoxyethoxy)ethoxy)ethyl)-benzamide] has an IC50 of 1.1 nM.
`COc1cc(Nc2cc(Oc3ccc(NC(=O)Nc4cc(C(C)(C)C)cc(NS(C)(=O)=O)c4OC)c4ccccc34)ccn2)cc(C(=O)NCCN2CCCCC2)c1` [83(e), 3-((4-((4-(3-(5-(tert-butyl)-2-methoxy-3-(methylsulfonamido)phenyl)ureido)naphthalen-1-yl)oxy)pyridin-2-yl)amino)-5-methoxy-N-(2-(piperidin-1-yl)ethyl)benzamide] gave an IC50 of 8 nM.
Compound `COc1cc(Nc2nccc(Oc3ccc(NC(=O)Nc4cc(C(C)(C)C)cc(NS(C)(=O)=O)c4OC)c4ccccc34)n2)cc(OCCOCCOCCC(=O)O)c1` [Example 30, 3-(2-(2-(3-((4-((4-(3-(5-(tert-Butyl)-2-methoxy-3-(methylsulfonamido)phenyl)ureido)-naphthalen-1-yl)oxy)pyrimidin-2-yl)amino)-5-methoxyphenoxy)ethoxy)ethoxy)propanoic acid] has an IC50 of 5.7 nM.
In the case of `COc1c(NC(=O)Nc2ccc(Oc3ccnc(Nc4ccccc4)n3)c3ccccc23)cc(C(C)(C)C)cc1C(=O)NC1COC1` [Example 78, 5-(tert-Butyl)-2-methoxy-N-(oxetan-3-yl)-3-(3-(4-((2-(phenylamino)pyrimidin-4-yl)oxy)-naphthalen-1-yl)ureido)benzamide], the IC50 is reported as 14 nM.
`COc1cc(CO)cc(Nc2cc(Oc3ccc(NC(=O)Nc4cc(C(C)(C)C)cc(NS(C)(=O)=O)c4OC)c4ccccc34)ccn2)c1` [84(f), 1-[5-tert-Butyl-3-(methanesulfonamido)-2-methoxyphenyl]-3-[4-[[2-[3-(hydroxymethyl)-5-methoxyanilino]-4-pyridyl]oxy]-naphthyl]urea] showed an IC50 of 13.5 nM.
With `COc1c(NC(=O)Nc2ccc(Oc3ccnc(Nc4ccccc4)c3)c3ccccc23)cc(C(C)(C)C)cc1C(=O)NC1CCN(C)CC1` [84(b), 3-[[4-[(2-Anilino-4-pyridyl)oxy]-1-naphthyl]carbamoylamino]-5-tert-butyl-2-methoxy-N-(1-methyl-4-piperidyl)benzamide] the IC50 was 9.1 nM.
In the case of `COCCOCCOCCOc1cc(Nc2nccc(Oc3ccc(NC(=O)Nc4cc(C(C)(C)C)cc(C(=O)NCc5ccccc5)c4OC)c4ccccc34)n2)cc(OC)c1` [Example 38, N-Benzyl-5-(tert-butyl)-2-methoxy-3-(3-(4-((2-((3-methoxy-5-(2-(2-(2-methoxyethoxy)-ethoxy)ethoxy)phenyl)amino)pyrimidin-4-yl)oxy)naphthalen-1-yl)ureido)benzamide], the IC50 is reported as 6.3 nM.
For `COCCOCCOCCOc1cc(Nc2nccc(Oc3ccc(NC(=O)Nc4cc(C(C)(C)C)cc5[nH]c(=O)oc45)c4ccccc34)n2)cc(OC)c1` [Example 63, 1-(5-(tert-Butyl)-2-oxo-2,3-dihydrobenzo[d]oxazol-7-yl)-3-(4-((2-((3-methoxy-5-(2-(2-(2-methoxyethoxy)ethoxy)ethoxy)phenyl)amino)pyrimidin-4-yl)oxy)naphthalen-1-yl)urea], the IC50 was 17.3 nM.
Work on `COc1cc(Nc2nccc(Oc3ccc(NC(=O)Nc4cc(C(C)(C)C)cc(NS(C)(=O)=O)c4OC)c4ccccc34)n2)cc(C(=O)NCCCN2CCOCC2)c1` [85(f), 3-[[4-[[4-[[5-tert-Butyl-3-(methanesulfonamido)-2-methoxyphenyl]-carbamoylamino]-1-naphthyl]oxy]pyrimidin-2-yl]amino]-5-methoxy-N-(3-morpholinopropyl)-benzamide] yielded an IC50 of 0.7 nM.
In the case of `COCCOCCOCCOc1cc(Nc2nccc(Oc3ccc(NC(=O)Nc4cc(C(C)(C)C)cc(C(=O)NCC(=O)O)c4OC)c4ccccc34)n2)cc(OC)c1` [Example 44, 2-(5-(tert-Butyl)-2-methoxy-3-(3-(4-((2-((3-methoxy-5-(2-(2-(2-methoxyethoxy)ethoxy)-ethoxy)phenyl)amino)pyrimidin-4-yl)oxy)naphthalen-1-yl)ureido)benzamido)acetic acid], the IC50 is reported as 86.8 nM.
For `COCCNC(=O)c1cc(C(C)(C)C)cc(NC(=O)Nc2ccc(Oc3ccnc(Nc4cc(OC)cc(OCCOCCOCCOC)c4)n3)c3ccccc23)c1OC` [Example 43, 5-(tert-Butyl)-2-methoxy-3-(3-(4-((2-((3-methoxy-5-(2-(2-(2-methoxyethoxy)ethoxy)-ethoxy)phenyl)amino)pyrimidin-4-yl)oxy)naphthalen-1-yl)ureido)-N-(2-methoxyethyl)-benzamide], the IC50 was 2 nM.
`COc1c(NC(=O)Nc2ccc(Oc3ccnc(Nc4ccccc4)c3)c3ccccc23)cc(C(C)(C)C)cc1C(=O)N[C@@H]1CCOC1` [84(c), 3-[[4-[(2-Anilino-4-pyridyl)oxy]-1-naphthyl]carbamoylamino]-5-tert-butyl-2-methoxy-N-[(3R)-tetrahydrofuran-3-yl]benzamide] gave an IC50 of 21.8 nM.
`CNC(=O)c1cc(N2CCOCC2)cc(NC(=O)Nc2ccc(Oc3ccnc(Nc4cc(OC)cc(OCCOCCOCCOC)c4)n3)c3ccccc23)c1OC` [Example 32, 2-Methoxy-3-(3-(4-((2-((3-methoxy-5-(2-(2-(2-methoxyethoxy)ethoxy)ethoxy)phenyl)-amino)pyrimidin-4-yl)oxy)naphthalen-1-yl)ureido)-N-methyl-5-morpholinobenzamide] showed an IC50 of 7.7 nM.
In the case of `COCCOCCOCCOc1cc(Nc2nccc(Oc3ccc(NC(=O)Nc4cc(C(C)(C)C)cc(C(=O)NC(C)C)c4OC)c4ccccc34)n2)cc(OC)c1` [Example 42, 5-(tert-Butyl)-N-isopropyl-2-methoxy-3-(3-(4-((2-((3-methoxy-5-(2-(2-(2-methoxyethoxy)-ethoxy)ethoxy)phenyl)amino)pyrimidin-4-yl)ox)naphthalen-1-yl)ureido)benzamide], the IC50 is reported as 6.6 nM.
In the case of `COc1cc(Nc2cc(Oc3ccc(NC(=O)Nc4cc(C(C)(C)C)cc(NS(C)(=O)=O)c4OC)c4ccccc34)ccn2)cc(C(=O)NCCN2CCCC2)c1` [83(d), 3-((4-((4-(3-(5-(tert-butyl)-2-methoxy-3-(methylsulfonamido)phenyl)ureido)naphthalen-1-yl)oxy)pyridin-2-yl)amino)-5-methoxy-N-(2-(pyrrolidin-1-yl)ethyl)benzamide], the IC50 is reported as 12.1 nM.
For `COc1c(NC(=O)Nc2ccc(Oc3ccnc(Nc4ccccc4)c3)c3ccccc23)cc(C(C)(C)C)cc1NS(=O)(=O)N1CCOCC1` [83(f), N-(5-(tert-butyl)-2-methoxy-3-(3-(4-((2-(phenylamino)pyridin-4-yl)oxy)naphthalen-1-yl)ureido)phenyl)morpholine-4-sulfonamide], the IC50 was 13.1 nM.
